The assay has as its target T1, human GCS (glucosylceramide synthase) (Homo sapiens, UniProt Q16739).
T1 construct: made in house; host or cells: Expi293F cells (transient expression; microsome fraction)
T1 sequence (Q16739 1-394): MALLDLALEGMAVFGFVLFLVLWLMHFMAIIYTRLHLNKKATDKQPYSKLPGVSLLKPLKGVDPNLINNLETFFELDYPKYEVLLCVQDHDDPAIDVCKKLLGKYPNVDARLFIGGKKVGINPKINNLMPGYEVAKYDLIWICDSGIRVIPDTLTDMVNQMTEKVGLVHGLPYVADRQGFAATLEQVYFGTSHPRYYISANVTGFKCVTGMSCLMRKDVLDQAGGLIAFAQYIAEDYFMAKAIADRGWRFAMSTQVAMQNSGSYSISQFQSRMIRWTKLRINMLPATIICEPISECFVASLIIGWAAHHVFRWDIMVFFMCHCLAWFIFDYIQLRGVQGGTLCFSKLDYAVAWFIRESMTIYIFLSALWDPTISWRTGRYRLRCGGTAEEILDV
Description: Glucosylceramide Synthase (GCS) Assay. It is filed as biochemical. The following applies: test compound 10 μM; microsome fraction of Expi293F cells expressing human GCS; 1.7 μM UDP-glucose, 3 μM C8 ceramide; room temperature 60 min; C8 glucosylceramide by Rapidfire MS/MS; read-out: GCS enzyme inhibitory rate at 10 μM (%). In a few lines: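 Test compounds were run at a final 10 μM against liposomal C8 ceramide (3 μM) and UDP-glucose at its Km (1.7 μM). Human GCS came as microsomes from transfected Expi293F cells, incubated 60 min at room temperature, pH 7.5. Product measured by RapidFire MS/MS; 0% and 100% inhibition were DMSO and no-enzyme wells.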
`CC(C)(O)c1ccc(NC(=O)c2ccnn(-c3ccccc3OCC(F)F)c2=O)cn1` [Example 134, 2-[2-(2,2-difluoroethoxy)phenyl]-N-[6-(2-hydroxypropan-2-yl)pyridin-3-yl]-3-oxo-2,3-dihydropyridazine-4-carboxamide]: the inhibition at 10 µM came out at 94%.

For `CC(C)(C#N)c1ccc(NC(=O)c2cn(C3COC3)nc(-c3ccccc3OCC(F)F)c2=O)cc1` [Example 191, N-[4-(2-cyanopropan-2-yl)phenyl]-6-[2-(2,2-difluoroethoxy)phenyl]-2-(oxetan-3-yl)-5-oxo-2,5-dihydropyridazine-4-carboxamide], the inhibition at 10 µM is 100%.

Turning to `CC(C)(C#N)c1ccc(NC(=O)c2cn(C3CC3)nc(-c3ccccc3OCC(F)F)c2=O)cc1` [Example 192, N-[4-(2-cyanopropan-2-yl)phenyl]-2-cyclopropyl-6-[2-(2,2-difluoroethoxy)phenyl]-5-oxo-2,5-dihydropyridazine-4-carboxamide], the inhibition at 10 µM is 100%.

`Cc1cc(C(=O)Nc2ccc(C(O)(C(F)F)C(F)F)cc2F)c(=O)n(-c2ccccc2OCC(F)F)n1` [Example 156, 2-[2-(2,2-difluoroethoxy)phenyl)-N-[2-fluoro-4-(1,1,3,3-tetrafluoro-2-hydroxypropan-2-yl)phenyl]-6-methyl-3-oxo-2,3-dihydropyridazine-4-carboxamide]: the inhibition at 10 µM worked out at 100%.

For the molecule `COC(C)(C)c1ccc(NC(=O)c2cccn(-c3ccccc3OCC(F)(F)F)c2=O)cn1` [Example 92, N-[6-(2-methoxypropan-2-yl)pyridin-3-yl]-2-oxo-1-[2-(2,2,2-trifluoroethoxy)phenyl]-1,2-dihydropyridine-3-carboxamide], the inhibition at 10 µM worked out at 95%.

For the molecule `CC(O)c1ccc(NC(=O)c2ccnn(-c3ccccc3OCC(F)(F)F)c2=O)cc1` (racemic) [Example 138, rac-N-[4-(1-hydroxyethyl)phenyl]-3-oxo-2-[2-(2,2,2-trifluoroethoxy)phenyl]-2,3-dihydropyridazine-4-carboxamide], the inhibition at 10 µM is 99%.

For the molecule `O=C(Nc1ccc(Oc2ccccc2)cc1)c1cccn(-c2ccccc2N2CCOCC2)c1=O` [Example 4, 1-[2-(morpholin-4-yl)phenyl]-2-oxo-N-(4-phenoxyphenyl)-1,2-dihydropyridine-3-carboxamide], the inhibition at 10 µM turned out to be 93%.

Turning to `CC(C)(O)Cn1cc(C(=O)Nc2ccc(OCC(F)(F)F)cc2)c(=O)c(-c2ccccc2OCC(F)F)n1` [Example 168, 6-[2-(2,2-difluoroethoxy)phenyl]-2-(2-hydroxy-2-methylpropyl)-5-oxo-N-[4-(2,2,2-trifluoroethoxy)phenyl]-2,5-dihydropyridazine-4-carboxamide], the inhibition at 10 µM worked out at 96%.

As for `Cc1cc(C(=O)Nc2ccc(C(C)(C)O)cc2F)c(=O)n(-c2ccccc2OCC(F)F)n1` [Example 146, 2-[2-(2,2-difluoroethoxy)phenyl]-N-[2-fluoro-4-(2-hydroxypropan-2-yl)phenyl]-6-methyl-3-oxo-2,3-dihydropyridazine-4-carboxamide], the inhibition at 10 µM turned out to be 100%.

Take `CC(C)(O)Cn1cc(C(=O)Nc2ccc(C(C)(C)O)cc2)c(=O)c(-c2ccccc2OCC(F)F)n1` [Example 174, 6-[2-(2,2-difluoroethoxy)phenyl]-2-(2-hydroxy-2-methylpropyl)-N-[4-(2-hydroxypropan-2-yl)phenyl]-5-oxo-2,5-dihydropyridazine-4-carboxamide]: the inhibition at 10 µM was determined as 91%.

As for `CC(C)(O)c1ccc(NC(=O)c2cccn(-c3ccnnc3OCC(F)(F)F)c2=O)cc1` [Example 90, N-[4-(2-hydroxypropan-2-yl)phenyl]-2-oxo-1-[3-(2,2,2-trifluoroethoxy)pyridazin-4-yl]-1,2-dihydropyridine-3-carboxamide], the inhibition at 10 µM was 90%.

In the case of `CC(C)(O)Cn1cc(C(=O)Nc2ccc(C(O)(C(F)F)C(F)F)nc2)c(=O)c(-c2ccccc2OCC(F)F)n1` [Example 178, 6-[2-(2,2-difluoroethoxy)phenyl]-2-(2-hydroxy-2-methylpropyl)-5-oxo-N-[6-(1,1,3,3-tetrafluoro-2-hydroxypropan-2-yl)pyridin-3-yl]-2,5-dihydropyridazine-4-carboxamide], the inhibition at 10 µM came out at 97%.

On to `COc1cc(F)ccc1-n1nccc(C(=O)Nc2ccc(Oc3ccccc3)cc2)c1=O` [Example 18, 2-(4-fluoro-2-methoxyphenyl)-3-oxo-N-(4-phenoxyphenyl)-2,3-dihydropyridazine-4-carboxamide], for which the inhibition at 10 µM is 76%.

As for `O=C(Nc1ccn(CC(F)(F)F)n1)c1cccn(-c2ccccc2OCC(F)(F)F)c1=O` [Example 22, 2-oxo-1-[2-(2,2,2-trifluoroethoxy)phenyl]-N-[1-(2,2,2-trifluoroethyl)-1H-pyrazol-3-yl]-1,2-dihydropyridine-3-carboxamide], the inhibition at 10 µM was determined as 77%.

As for `O=C(Nc1ccc(C(=O)N2CCCCC2)cc1)c1cccn(-c2ccc(F)cc2OCC(F)(F)F)c1=O` [Example 43, 1-[4-fluoro-2-(2,2,2-trifluoroethoxy)phenyl]-2-oxo-N-[4-(piperidine-1-carbonyl)phenyl]-1,2-dihydropyridine-3-carboxamide], the inhibition at 10 µM was 95%.

As to `O=C(Nc1ccc(OCCC(F)(F)F)nc1)c1cccn(-c2ccc(F)cc2OCC(F)(F)F)c1=O` [Example 64, 1-[4-fluoro-2-(2,2,2-trifluoroethoxy)phenyl]-2-oxo-N-[6-(3,3,3-trifluoropropoxy)pyridin-3-yl]-1,2-dihydropyridine-3-carboxamide], the inhibition at 10 µM turned out to be 99%.

Take `CC(C)(O)c1ccc(NC(=O)c2cccn(-c3ccccc3OCC(F)(F)F)c2=O)cc1F` [Example 82, N-[3-fluoro-4-(2-hydroxypropan-2-yl)phenyl]-2-oxo-1-[2-(2,2,2-trifluoroethoxy)phenyl]-1,2-dihydropyridine-3-carboxamide]: the inhibition at 10 µM is 99%.

For `COc1cc(F)ccc1-n1nccc(C(=O)Nc2ccc(OCC(F)(F)F)nc2)c1=O` [Example 23, 2-(4-fluoro-2-methoxyphenyl)-3-oxo-N-[6-(2,2,2-trifluoroethoxy)pyridin-3-yl]-2,3-dihydropyridazine-4-carboxamide], the inhibition at 10 µM worked out at 87%.

In the case of `Cc1cc(C(=O)Nc2ccc(C(C)(C)O)cc2)c(=O)n(-c2ccccc2OCC(F)(F)F)n1` [Example 131, N-[4-(2-hydroxypropan-2-yl)phenyl]-6-methyl-3-oxo-2-[2-(2,2,2-trifluoroethoxy)phenyl]-2,3-dihydropyridazine-4-carboxamide], the inhibition at 10 µM was 100%.

For `CC(C)(O)c1ccc(NC(=O)c2ccnn(-c3ccccc3OCC(F)(F)F)c2=O)cc1` [Example 127, N-[4-(2-hydroxypropan-2-yl)phenyl]-3-oxo-2-[2-(2,2,2-trifluoroethoxy)phenyl]-2,3-dihydropyridazine-4-carboxamide], the inhibition at 10 µM worked out at 100%.

In the case of `CC(C)(O)c1ccc(NC(=O)c2cccn(-c3cc(F)c(F)cc3OCC(F)(F)F)c2=O)cc1` [Example 108, 1-[4,5-difluoro-2-(2,2,2-trifluoroethoxy)phenyl]-N-[4-(2-hydroxypropan-2-yl)phenyl]-2-oxo-1,2-dihydropyridine-3-carboxamide], the inhibition at 10 µM amounted to 95%.

For the molecule `COc1cc(F)ccc1-n1cccc(C(=O)Nc2ccc(N3CCOCC3)cc2)c1=O` [Example 19, 1-(4-fluoro-2-methoxyphenyl)-N-[4-(morpholin-4-yl)phenyl]-2-oxo-1,2-dihydropyridine-3-carboxamide], the inhibition at 10 µM was 55%.

In the case of `CCOC(=O)c1ccc(NC(=O)c2cc(C)nn(-c3ccccc3OCC(F)F)c2=O)cc1` [Example 194, ethyl 4-({2-[2-(2,2-difluoroethoxy)phenyl]-6-methyl-3-oxo-2,3-dihydropyridazine-4-carbonyl}amino)benzoate], the inhibition at 10 µM is 97%.

As to `COCCOc1cc(F)ccc1-n1cccc(C(=O)Nc2ccc(OCC(F)(F)F)nc2)c1=O` [Example 27, 1-[4-fluoro-2-(2-methoxyethoxy)phenyl]-2-oxo-N-[6-(2,2,2-trifluoroethoxy)pyridin-3-yl]-1,2-dihydropyridine-3-carboxamide], the inhibition at 10 µM was found to be 75%.

Take `CC(C)(O)c1ccc(NC(=O)c2cccn(-c3ccc(F)cc3OCC(F)(F)F)c2=O)cn1` [Example 85, 1-[4-fluoro-2-(2,2,2-trifluoroethoxy)phenyl]-N-[6-(2-hydroxypropan-2-yl)pyridin-3-yl]-2-oxo-1,2-dihydropyridine-3-carboxamide]: the inhibition at 10 µM worked out at 94%.

`CC(C)(O)COc1ccc(NC(=O)c2cn(C(F)F)nc(-c3ccccc3OCC(F)F)c2=O)cc1` [Example 165, 6-[2-(2,2-difluoroethoxy)phenyl]-2-(difluoromethyl)-N-[4-(2-hydroxy-2-methylpropoxy)phenyl]-5-oxo-2,5-dihydropyridazine-4-carboxamide]: the inhibition at 10 µM is 98%.

As for `O=C(Nc1ccc(OCC(F)(F)F)nc1)c1cccn(-c2ccccc2OCC(F)(F)F)c1=O` [Example 15, 2-oxo-1-[2-(2,2,2-trifluoroethoxy)phenyl]-N-[6-(2,2,2-trifluoroethoxy)pyridin-3-yl]-1,2-dihydropyridine-3-carboxamide], the inhibition at 10 µM worked out at 100%.

The values above are taken from US20220289679A1, “HETEROCYCLIC COMPOUND” (Takeda Pharmaceutical Company Limited, priority 2019, published 2022).
